Results reported in paper PMC4695662 (BioMed Research International, 2015).

Experiments:
Oat1 and Oat3 [1] = assay: Accumulation of PAH in kidney tissue; assay type: in vivo, mice; details: all sampling times after i.v. PAH, compared with C-1 (p < 0.01); in words
Experimental: The mice renal homogenate was prepared by Shihana et al. protocol. Each right kidney was cut into small pieces, which were put into a glass homogenizing tube containing PBS (200 mM sucrose, 137 mM NaCl, 2.7 mM KCl, 10 mM Na2HPO4, and 2 mM NaH2PO4; pH 7.4) at a ratio of 8 mL/g wet weight and then were homogenized with a motor-driven Teflon pestle (1000 rpm/min) and spun down for 30 min at 20,000 ×g. The supernatant was isolated and then stored at −20°C until determination. The kidney homogenates were prepared from each group which was removed at 1, 5, 10, 20, and 30 min after i.v. PAH. Protein content of kidney homogenates was quantified using the Lowry Folin phenol reagent (Nanjing Jiancheng Bioengineering Institute, Ltd., China, Lot. 130918). The concentrations of PAH in kidney homogenate were determined the same as that in the sera.

Oat3 mRNA = Oat3 mRNA expression in kidney by real-time PCR; assay type: in vivo; details: renal cortex of mice
Experimental: (§1) Total RNA was extracted using Trizol reagent from renal cortical tissues according to the manufacturer's instructions and RNA concentration and purity were evaluated by measuring the ratio of A260 nm/A280 nm. First-strand cDNA was generated by adding 1 μg total RNA; 2 μL 5x gDNA Eraser Buffer; 1 μL gDNA Eraser; 5 μL RNase Free dH2O (step 1: 42°C, 2 min for genomic DNA elimination reaction); […]; 1 μL Prime Script RT Enzyme Mix I; 1 μL RT Primer Mix; 4 μL RNase Free dH2O; and 10 μL reaction solution from step 1, which were used to reach a total reaction volume of 20 μL. The condition of reverse-transcription (RT) reaction was as follows, 15 min at 37°C and 85°C for 5 s, and stored at 4°C. […]
(§2) The real-time quantitative PCR was conducted in ABI 7500 (Applied Biosystems, USA) and the cycling program was set at 1 cycle of predenaturation at 95°C for 30 s and then 40 cycles at 95°C for 15 s, 56°C for 30 s, and 72°C for 31 s. […] Quantification of the target cDNAs in all samples was normalized to GAPDH […] (Cttarget − CtGAPDH = ΔCt) and the difference in expression for each target cDNA in the investigated groups was expressed to the amount in the water control group (ΔCttreated − ΔCtcontrol = ΔΔCt). Fold changes in target gene expression were determined by taking 2 to the power of this number (2^−ΔΔCt).

Oat1 and Oat3 [2] = assay: PAH uptake by mice renal slices after treatment; assay type: in vivo; details: 2 mM PAH, 20 min, 37°C, slices from mice treated twice a day for five days; in words
Experimental: The uptake of PAH by mice renal slices was investigated using the procedures described by Henderson and Lindup. Briefly, mice were executed, and the kidneys were immediately harvested, decapsulated, and placed in an ice-cold oxygenated rinse PBS (pH 7.4). Renal slices (weight 10–20 mg/slice) were cut freehand with Gillette valet strip blades to about 0.2 inches in length (Sabre International Products Ltd., Reading, UK). Slices of one kidney were preincubated for 5 min at 37°C and incubated in a 12-well plate with 1 mL of oxygenated PAH-buffer which consisted of 2 mM PAH, 97 mM NaCl, 40 mM KCl, 0.74 mM CaCl2, and 7.5 mM sodium phosphate-chloride buffer in each well. The uptake study was carried out at 37°C in the shaking bath. After incubating for 20 min, each slice was rapidly removed from the PAH-buffer, immediately inactivated the proteins with trichloroacetic acid, was washed in ice-cold saline, was blotted on filter paper, was weighed, and then was homogenized at a ratio of 3 mL/g wet weight. The following operations were the same as described in Section 2.6.

Oat1 mRNA = Oat1 mRNA expression in kidney by real-time PCR; assay type: in vivo; details: renal cortex of mice
Experimental: as §1, §2

Oat1 and Oat3 [3] = assay: PAH pharmacokinetic studies in mice sera after oral treatment with investigational samples; details: in words, versus control
Experimental: All mice were given standard mice chows and pure water ad libitum and housed at 20~26°C.
On the experiment day, 60 min after the last administration of investigational samples, all mice were single i.v. PAH (30 mg/kg B.W., aqueous solution), respectively, according to the protocol of Bertani et al. [16] and blood samples were collected from 10 mice/group by euthanization in each time point at 1.0, 2.5, 5.0, 7.5, 10.0, 20.0, and 30.0 min after PAH injection. Blood samples were centrifuged at 2000 ×g for 5 min. The obtained sera were stored at −20°C until measurement.
The concentration of PAH in sera was determined according to Saikan and Kiguchi [19] method. The sera concentration versus time curve for PAH, for each individual animal, was fitted with PK software DAS 2.0. The data were fitted to a biexponential curve. The choice of the best fit was based on the determination of coefficient values (R ^2) and LSD test [20]. All fits should have R ^2 values > 0.98. […] Concentration of PAH in serum was measured using the method described by Di Giusto et al. [21].

For [Cl][Hg][Cl] [HgCl2], the “PAH accumulations in the kidneys” value (Oat1 and Oat3 [1]) was “observably increased”, the “Decrease in Oat3 mRNA level” value (Oat3 mRNA) was 40% and the “Active uptake of PAH by renal slices” value (Oat1 and Oat3 [2]) was “interfered with the PAH uptake”. For the same compound, the “Reduction of Oat1 mRNA expression” value (Oat1 mRNA) was 40%, the “Change of area under the curve (AUC0–30 min) of serum PAH” value (Oat1 and Oat3 [3]) was “significant increase” and the “Change of total volume of distribution (VdT) of serum PAH” value (Oat1 and Oat3 [3]) was “obvious decrease”.
